Experimental data as given in patent publication US11236025B2, “Methods for improving control of insects and related compositions” (Syngenta Participations AG, priority 2013, dated 2022).
Where two headings read alike, the source gives them in different places.

Experiments:
[1] = system: Diabrotica balteata larvae; assay: Control of rootworm: greenhouse tray test on maize, soil application, larval mortality; type: in vivo; settings: 168 h, infested 7 days after application, read-out: Corr. Mortality (%) 5 DAI
Procedure: (§1) Plastic trays (13×18×11.5 cm) with 4 holes in the bottom were filled with a filter paper and 400 mL Drench soil. 8 maize seeds (2 rows with 4 seeds each) were placed on the soil. Compound solution was applied with a track-sprayer at 200 L/ha. After drying seeds were covered with 200 mL untreated Drench soil and evened. Trays were incubated in a greenhouse chamber (25° C., 50% r.h., 14 h light (>20,000 lux)) and watered daily. 7 days after application each tray was infested with 10 (3 replicates) Diabrotica balteata larvae. After infestation all trays were covered with a plastic lid, which was perforated with 6-9 holes for ventilation. 5 days after infestation the survived larvae were counted. Also assessed was the larval growth (size difference between compound replicates and control). TEFL=Tefluthrin.

Agrotis ipsilon larvae = assay: Control of cutworm: greenhouse tray test on maize, soil application, larval mortality; type: in vivo; settings: 168 h, infested 7 days after application, read-out: Corr. Mortality (%) 5 DAI
Procedure: as §1, with “(>20′000” for “(>20,000”, “5 (6” for “10 (3”, “Agrotis ipsilon” for “Diabrotica balteata”

[2] = w/15% Nachurs 6-24-6, 25 ppm AI
[3] = w/15% Nachurs 6-24-6, 100 ppm AI
[4] = w/30% Nachurs 6-24-6, 25 ppm AI
[5] = w/30% Nachurs 6-24-6, 100 ppm AI

Cc1c(F)c(F)c(COC(=O)[C@@H]2[C@H](/C=C(\Cl)C(F)(F)F)C2(C)C)c(F)c1F (racemic) [TEFL, Tefluthrin] gave a mortality at 25 ppm ([1]; no fertilizer, 25 ppm AI) of 0%, a mortality at 50 ppm ([1]; no fertilizer, 50 ppm AI) of 0% and a mortality at 100 ppm ([1]; no fertilizer, 100 ppm AI) of 18%. For the same molecule, the mortality at 200 ppm ([1]; no fertilizer, 200 ppm AI) was 86%, the mortality at 400 ppm ([1]; no fertilizer, 400 ppm AI) was 100% and the mortality at 25 ppm [1, 2] was 4%. It also gave a mortality at 50 ppm ([1]; w/15% Nachurs 6-24-6, 50 ppm AI) of 14%, a mortality at 100 ppm [1, 3] of 71% and a mortality at 200 ppm ([1]; w/15% Nachurs 6-24-6, 200 ppm AI) of 100%. It also gave a mortality at 400 ppm ([1]; w/15% Nachurs 6-24-6, 400 ppm AI) of 96%, a mortality at 25 ppm [1, 4] of 4% and a mortality at 50 ppm ([1]; w/30% Nachurs 6-24-6, 50 ppm AI) of 11%. It also gave a mortality at 100 ppm [1, 5] of 86%, a mortality at 200 ppm ([1]; w/30% Nachurs 6-24-6, 200 ppm AI) of 96% and a mortality at 400 ppm ([1]; w/30% Nachurs 6-24-6, 400 ppm AI) of 100%. The mortality at 25 ppm (Agrotis ipsilon larvae; no fertilizer, 25 ppm AI) was 38%, the mortality at 100 ppm (Agrotis ipsilon larvae; no fertilizer, 100 ppm AI) was 25% and the mortality at 250 ppm (Agrotis ipsilon larvae; no fertilizer, 250 ppm AI) was 71%. It also gave a mortality at 500 ppm (Agrotis ipsilon larvae; no fertilizer, 500 ppm AI) of 92%, a mortality at 1000 ppm (Agrotis ipsilon larvae; no fertilizer, 1000 ppm AI) of 100% and a mortality at 25 ppm (Agrotis ipsilon larvae; [2]) of 31%. The mortality at 100 ppm (Agrotis ipsilon larvae; [3]) was 29%, the mortality at 250 ppm (Agrotis ipsilon larvae; w/15% Nachurs 6-24-6, 250 ppm AI) was 79% and the mortality at 500 ppm (Agrotis ipsilon larvae; w/15% Nachurs 6-24-6, 500 ppm AI) was 100%. It also gave a mortality at 1000 ppm (Agrotis ipsilon larvae; w/15% Nachurs 6-24-6, 1000 ppm AI) of 100%, a mortality at 25 ppm (Agrotis ipsilon larvae; [4]) of 25% and a mortality at 100 ppm (Agrotis ipsilon larvae; [5]) of 29%. For the same molecule, the mortality at 250 ppm (Agrotis ipsilon larvae; w/30% Nachurs 6-24-6, 250 ppm AI) was 79%, the mortality at 500 ppm (Agrotis ipsilon larvae; w/30% Nachurs 6-24-6, 500 ppm AI) was 96% and the mortality at 1000 ppm (Agrotis ipsilon larvae; w/30% Nachurs 6-24-6, 1000 ppm AI) was 100%.
